Reference: PubChem BioAssay AID248 (DTP/NCI, 2004)
Values joined by “and” are separate entries in the source; they are usually repeats but may differ in a detail not shown here. Equal entries are not always repeated. Toxic doses and inconclusive results are not listed. Cut-off read from the data, not from the text of the source: active = T/C of 150% or more; inactive = T/C below 125%.

Tested on: L1210 leukemia ip in BDF1 mice, survival T/C
Assay: NCI In Vivo Anticancer Drug Screen. Data for tumor model L1210 Leukemia (intraperitoneal) in B6D2F1 (BDF1) mice
Details: endpoint: mean survival time, higher = longer survival
Description: The antitumor activity of compounds was measured in mice bearing transplantable tumors. Survival or tumor size were measured and the results are expressed as the measurement made in the treated group (T) divided by the measurement made in the vehicle treated control group (C). The tumor model used in this assay is L1210 Leukemia (intraperitoneal) in B6D2F1 (BDF1) mice

[1] = dose: 100.0 mg/kg/injection, schedule: Q01DX001 (ip), vehicle: carboxymethylcellulose (CMC)
[2] = dose: 200.0 mg/kg/injection, schedule: Q01DX001 (ip), vehicle: carboxymethylcellulose (CMC)
[3] = dose: 400.0 mg/kg/injection, schedule: Q01DX001 (ip), vehicle: carboxymethylcellulose (CMC)
[4] = dose: 100.0 mg/kg/injection, schedule: Q04DX003 (ip), vehicle: Klucel (hydroxypropylcellulose) (HPC)
[5] = dose: 200.0 mg/kg/injection, schedule: Q04DX003 (ip), vehicle: Klucel (hydroxypropylcellulose) (HPC)
[6] = dose: 400.0 mg/kg/injection, schedule: Q04DX003 (ip), vehicle: Klucel (hydroxypropylcellulose) (HPC)
[7] = dose: 75.0 mg/kg/injection, schedule: Q01DX001 (ip), vehicle: saline
[8] = dose: 50.0 mg/kg/injection, schedule: Q04DX003 (ip), vehicle: Klucel (hydroxypropylcellulose) (HPC)
[9] = dose: 100.0 mg/kg/injection, schedule: Q01DX009 (ip), vehicle: Klucel (hydroxypropylcellulose) (HPC)
[10] = dose: 200.0 mg/kg/injection, schedule: Q01DX009 (ip), vehicle: Klucel (hydroxypropylcellulose) (HPC)
[11] = dose: 400.0 mg/kg/injection, schedule: Q01DX009 (ip), vehicle: Klucel (hydroxypropylcellulose) (HPC)
[12] = dose: 100.0 mg/kg/injection, schedule: Q04DX003 (ip), vehicle: other
[13] = dose: 200.0 mg/kg/injection, schedule: Q04DX003 (ip), vehicle: other
[14] = dose: 400.0 mg/kg/injection, schedule: Q04DX003 (ip), vehicle: other
[15] = dose: 100.0 mg/kg/injection, schedule: Q04DX002 (ip), vehicle: Klucel (hydroxypropylcellulose) (HPC)
[16] = dose: 200.0 mg/kg/injection, schedule: Q04DX002 (ip), vehicle: Klucel (hydroxypropylcellulose) (HPC)
[17] = dose: 400.0 mg/kg/injection, schedule: Q04DX002 (ip), vehicle: Klucel (hydroxypropylcellulose) (HPC)

Measured: T/C

OCC1C2CC3C(C2)C13 (stereo unspecified)
inactive: [1] 101 % of control | [2] 93 % of control | [3] 90 % of control

CCCOC(C(=O)OC1CCN(C)CC1)(c1ccccc1)c1ccccc1
inactive: dose: 12.5 mg/kg/injection, schedule: Q01DX009 (ip), vehicle: saline 98 % of control | dose: 25.0 mg/kg/injection, schedule: Q01DX009 (ip), vehicle: saline 102 % of control | dose: 50.0 mg/kg/injection, schedule: Q01DX009 (ip), vehicle: saline 94 % of control

CCC(=N\O)/C(C)=N/O
inactive: [4] 103 % of control | [5] 103 % of control | [6] 100 % of control

CC(C)CNC(=O)Nc1ccccc1C(F)(F)F
inactive: dose: 100.0 mg/kg/injection, schedule: Q04DX003 (ip), vehicle: saline with Tween-80 95 % of control | dose: 200.0 mg/kg/injection, schedule: Q04DX003 (ip), vehicle: saline with Tween-80 97 % of control | dose: 400.0 mg/kg/injection, schedule: Q04DX003 (ip), vehicle: saline with Tween-80 97 % of control

O=C(CBr)c1cccc2c1Nc1ccccc1S2
inactive: [7] 98 % of control

Nc1ccc(OCc2ccc(C(=O)Nc3cccc(S(=O)(=O)F)c3)cc2)c(Cl)c1
inactive: [4] 100 % of control | [5] 108 % of control | [6] 96 % of control

Nc1nc2[nH]c(=O)cnc2c(=O)[nH]1
inactive: dose: 50.0 mg/kg/injection, schedule: Q01DX009 (ip), vehicle: Klucel (hydroxypropylcellulose) (HPC) 102 % of control | [8] 107 % of control | [9] 111 % of control | [4] 110 % of control | [10] 107 % of control | [5] 102 % of control | [11] 95 % of control | [6] 104 % of control

CC(=O)Nc1onc(C)c1[N+](=O)[O-]
inactive: dose: 100.0 mg/kg/injection, schedule: Q01DX009 (ip), vehicle: saline 101 % of control | [12] 91 % of control | dose: 200.0 mg/kg/injection, schedule: Q01DX009 (ip), vehicle: saline 98 % of control and 91 % of control | [13] 92 % of control | dose: 400.0 mg/kg/injection, schedule: Q01DX009 (ip), vehicle: saline 94 % of control and 86 % of control | [14] 94 % of control

C/C=C(\C)C1(CC)C(=O)NC(=O)N(C)C1=O (stereo unspecified)
inactive: [7] 93 % of control | dose: 150.0 mg/kg/injection, schedule: Q01DX001 (ip), vehicle: saline 97 % of control

COc1cc(/C(C)=C2\SC(=O)NC2=O)ccc1O
inactive: dose: 100.0 mg/kg/injection, schedule: Q01DX001 (ip), vehicle: saline 106 % of control | dose: 200.0 mg/kg/injection, schedule: Q01DX001 (ip), vehicle: saline 95 % of control | dose: 400.0 mg/kg/injection, schedule: Q01DX001 (ip), vehicle: saline 98 % of control

O=C(NCCCl)NC(CO)C(=O)O (stereo unspecified)
inactive: dose: 100.0 mg/kg/injection, schedule: Q04DX003 (ip), vehicle: saline 98 % of control | dose: 200.0 mg/kg/injection, schedule: Q04DX003 (ip), vehicle: saline 93 % of control | dose: 400.0 mg/kg/injection, schedule: Q04DX003 (ip), vehicle: saline 95 % of control

Nc1ncnc(N)c1NC(=O)c1ccc(Cl)c(Cl)c1
inactive: dose: 75.0 mg/kg/injection, schedule: Q01DX001 (ip), vehicle: saline with Tween-80 102 % of control | dose: 150.0 mg/kg/injection, schedule: Q01DX001 (ip), vehicle: saline with Tween-80 98 % of control | dose: 300.0 mg/kg/injection, schedule: Q01DX001 (ip), vehicle: saline with Tween-80 96 % of control

C=CCc1c[nH]c(=S)[nH]c1=O.[Hg]
inactive: dose: 3.12 mg/kg/injection, schedule: Q01DX001 (ip), vehicle: Klucel (hydroxypropylcellulose) (HPC) 98 % of control | dose: 6.0 mg/kg/injection, schedule: Q01DX009 (ip), vehicle: Klucel (hydroxypropylcellulose) (HPC) 98 % of control | dose: 6.0 mg/kg/injection, schedule: Q04DX003 (ip), vehicle: Klucel (hydroxypropylcellulose) (HPC) 97 % of control | dose: 6.25 mg/kg/injection, schedule: Q01DX001 (ip), vehicle: Klucel (hydroxypropylcellulose) (HPC) 98 % of control | dose: 12.0 mg/kg/injection, schedule: Q01DX009 (ip), vehicle: Klucel (hydroxypropylcellulose) (HPC) 94 % of control | dose: 12.0 mg/kg/injection, schedule: Q04DX003 (ip), vehicle: Klucel (hydroxypropylcellulose) (HPC) 100 % of control | dose: 12.5 mg/kg/injection, schedule: Q01DX001 (ip), vehicle: Klucel (hydroxypropylcellulose) (HPC) 93 % of control and 96 % of control | dose: 50.0 mg/kg/injection, schedule: Q01DX001 (ip), vehicle: Klucel (hydroxypropylcellulose) (HPC) 93 % of control

COc1ccc(C(=O)NC(SC)C(N)=O)cc1 (stereo unspecified)
inactive: [15] 90 % of control | [16] 101 % of control | [17] 93 % of control

COC(=O)C(C)(N)Cc1ccc(O)c(C)c1 (stereo unspecified)
inactive: [9] 96 % of control | [4] 108 % of control | [10] 100 % of control | [5] 101 % of control | [6] 95 % of control

CC1=C(Br)C(=O)C(c2c(C)cc(C)c(Br)c2C)=C(Br)C1=O
inactive: [8] 111 % of control | dose: 100.0 mg/kg/injection, schedule: Q01DX001 (ip), vehicle: Klucel (hydroxypropylcellulose) (HPC) 89 % of control | [4] 92 % of control | dose: 200.0 mg/kg/injection, schedule: Q01DX001 (ip), vehicle: Klucel (hydroxypropylcellulose) (HPC) 87 % of control | [5] 94 % of control

CC12CCC3C(CCC4CC5SC5CC43C)C1CCC2O (stereo unspecified)
inactive: [15] 108 % of control | [16] 111 % of control | [17] 101 % of control

CCOC(=O)COc1c(C)cccc1Cl
inactive: dose: 100.0 mg/kg/injection, schedule: Q04DX002 (ip), vehicle: saline with Tween-80 111 % of control | dose: 200.0 mg/kg/injection, schedule: Q04DX002 (ip), vehicle: saline with Tween-80 114 % of control

c1ccc(C(c2ccccc2)c2ccccn2)cc1
inactive: dose: 50.0 mg/kg/injection, schedule: Q04DX002 (ip), vehicle: other 95 % of control | [15] 98 % of control | dose: 100.0 mg/kg/injection, schedule: Q04DX002 (ip), vehicle: other 95 % of control | [12] 103 % of control | [16] 102 % of control | dose: 200.0 mg/kg/injection, schedule: Q04DX002 (ip), vehicle: other 95 % of control | [13] 117 % of control | [17] 106 % of control | [14] 111 % of control

O=Cc1c(Cl)n(C(=O)c2ccccc2)c2ccccc12
inactive: dose: 50.0 mg/kg/injection, schedule: Q04DX002 (ip), vehicle: Klucel (hydroxypropylcellulose) (HPC) 90 % of control | [15] 87 % of control | [16] 97 % of control

O=C(Cc1cccc2ccccc12)N/N=C/c1cccc([N+](=O)[O-])c1
inactive: [9] 88 % of control | [15] 93 % of control | [10] 93 % of control | [16] 89 % of control | [17] 96 % of control

N#CC12OC1(C#N)C(=O)c1ccccc1C2=O (stereo unspecified)
inactive: dose: 75.0 mg/kg/injection, schedule: Q01DX001 (ip), vehicle: Klucel (hydroxypropylcellulose) (HPC) 92 % of control

CC(=O)CCC(CCC(C)=O)(CCC(C)=O)[N+](=O)[O-]
inactive: [1] 104 % of control | [2] 104 % of control | [3] 98 % of control

CCOC1=NCCCCC1OC(C)=O (stereo unspecified)
inactive: [9] 107 % of control | [10] 104 % of control | [11] 95 % of control
